Assay results as given in patent US9351944B1, “Malodor eliminating compositions” (TAKASAGO INTERNATIONAL CORPORATION, priority 2008, dated 2016).
Values joined by “and” are separate entries in the source; they are usually repeats but may differ in a detail not shown here. Identical values can stand only once.

Tests used:
[1] = Methyl mercaptan chemical suppression by Group A and Group B compounds (GC-PFPD); details: test material 200 ppm, malodor material 10 ppm, room temperature 2 hours, ethanol/deionized water
Description: 2 μl of 0.5%(w/v) of sodium methoxide in deionized water, 20 μl of 1% (w/v) test malodor eliminating material in ethanol, 80 μl of ethanol, and 900 μl of deionized water were added into a 2 ml GC vial, left to sit at room temperature for 2 hours, and analyzed using Multipurpose sampler-GC-PFPD (Gas Chromatography-Pulsed Flame Photometric Detector) (GC-PFPD)MPS2 (Gerstel)—GC; 6890N (Agilent)—PFPD; model 5380 (OI Analytical). As a control, ethanol was added instead of test malodor eliminating materials. The final concentration of test OE material and malodor material are 200 ppm and 10 ppmm, respectively. Malodor suppression was calculated as follows: Malodor Suppression (%)=(GC area of control sample−GC area of test_sample)/GC area of control sample×100

[2] = Methyl mercaptan suppression by Group A and Group B materials alone and combined (synergistic or additive activity); details: in ethanol, room temperature 2 hours; for methyl mercaptan suppression (%) A alone: Group A level 200 ppm
Description: The synergistic or additive activity of methyl mercaptan inhibition of malodor eliminating materials was tested. 5-40 μl of 1% (w/v) test OE materials in ethanol was placed into a 2 ml GC vial. Ethanol was added into this vial up to 1000 μl. 2 μl of 0.5%(w/v) of sodium methoxide in deionized water was added into the resulting vial, left to sit at room temperature for 2 hours, and analyzed using Multipurpose sampler-GC-PFPD. As a control, ethanol was added instead of test OE materials. Malodor suppression was calculated as described in Example 1 above.

[3] = Suppression of methyl mercaptan (Example 12, GC-PFPD); details: test material 0.2%, malodor material 10 ppm, room temperature 2 hours, triplicate
Description: 100 μl of 0.01%(w/v) of test malodor material in ethanol, 2 μl of neat flavor oil and 900 μl of deionized water were added into a 4 ml vial and left to sit at room temperature for 2 hours. As a control, ethanol was added instead of the malodor reducing compound. The final concentration of test material and malodor material are 0.2% and 10 ppmm, respectively. 3 ml of ethanol was added into the resulting vial and the thiol level was analyzed using GC-PFPD as described above. Each material was tested in triplicate. Malodor suppression was calculated as described in the example 1 above.

[4] = Allyl mercaptan chemical suppression by malodor eliminating materials (GC-PFPD); details: OE material 0.2%, malodor material 10 ppm, room temperature 2 hours, triplicate
Description: (§1) The selected OE materials were tested for propyl, allyl, and furfuryl mercaptan suppression. 100 μl of 0.01%(w/v) of test malodor material in ethanol, 2 μl of neat flavor oil and 900 μl of deionized water were added into a 4 ml vial and left to sit at room temperature for 2 hours. As a control, ethanol was added instead of test flavor materials. The final concentration of test OE material and malodor material are 0.2% and 10 ppm, respectively. 3 ml of ethanol was added into the resulting vial and the thiol level was analyzed using GC-PFPD. Each material was tested in triplicate. Malodor suppression was calculated as described in the example 1 above.

[5] = Furfuryl mercaptan chemical suppression by malodor eliminating materials (GC-PFPD); details: OE material 0.2%, malodor material 10 ppm, room temperature 2 hours, triplicate
Description: as §1

[6] = Propyl mercaptan chemical suppression by malodor eliminating materials (GC-PFPD); details: OE material 0.2%, malodor material 10 ppm, room temperature 2 hours, triplicate
Description: as §1

| Compound | methyl mercaptan suppression (%) [1] [%] | methyl mercaptan suppression (%) [3] [%] | further results |
| --- | --- | --- | --- |
| C/C=C/C(=O)OCC [ETHYL-TRANS-2 BUTENOATE, ethyl-trans-2-butenoate] | 73 | – | methyl mercaptan suppression (%) A alone [2]: 64% |
| CCOC(C)=O [ETHYL ACETATE, ethyl acetate] | – | <20 | – |
| C=CC(O)CCCCC (stereo not drawn) [OCTEN-1 3-OL] | 19 | – | – |
| CC(C)CC=C(C=O)c1ccccc1 [METH 2-PHEN 2-HEXENAL, 5,] | 59 | – | – |
| CCCC/C=C/C=C/C=O [NONADIENAL-TRANS-2-TRANS-4, trans-2-trans-4-nonadien-1-al] | 42 | – | – |
| CC=Cc1ccc(O)c(OC)c1 [ISOEUGENOL, isoeugenol] | 15 | – | – |
| CCOC(=O)C(C)CC (stereo not drawn) [ETHYL 2-METHYLBUTYRATE, ethyl 2-methylbutyrate] | – | <20 | – |
| OCCc1ccccc1 [PHENYL ETHYL ALCOHOL-BETA, phenethyl alcohol beta] | – | <20 | – |
| CCC/C=C/COC(C)=O [HEXENYL-TRANS-2 ACETATE] | 35 | – | – |
| C=C(C)[C@@H]1CC=C(C)C(=O)C1 [CARVONE-L, carvone-l] | 14 | 60 | Malodor reduction (%) allyl mercaptan [4]: <20%; methyl mercaptan suppression (%) A alone [2]: 12%; Malodor reduction (%) furfuryl mercaptan [5]: 27%; Malodor reduction (%) propyl mercaptan [6]: <20% |
| CC(C)CCOC(=O)C=Cc1ccccc1 [ISOAMYL CINNAMATE] | 10 | – | – |
| CCC(=O)OCCc1ccccc1 [PHENYLETHYL PROPIONATE, phenyl ethyl propionate] | – | <20 | – |
| C/C=C(\C)C(=O)OCCc1ccccc1 [PHEN ETH TIGLATE] | – | – | methyl mercaptan suppression (%) A alone [2]: 4% |
| CCCCCCCCC/C=C/C=O [DODECENAL, TRANS-2,] | 53 | – | – |
| damascone beta [DAMASCONE, BETA] | 99 | 74 | Malodor reduction (%) allyl mercaptan [4]: 85%; Malodor reduction (%) furfuryl mercaptan [5]: 47%; Malodor reduction (%) propyl mercaptan [6]: 23% |
| CCCCC/C(C=O)=C/c1ccccc1 [AMYL CINN ALD, ALPHA] | 5 | – | methyl mercaptan suppression (%) A alone [2]: −3% and −1% |
| CCC/C=C/CO [HEXENOL, TRANS-2-, trans-2-hexenol] | 29 | – | – |
| CC(=O)/C=C/C1=C(C)CCCC1(C)C [IONONE-BETA, ionone beta] | 23 | 55 | Malodor reduction (%) allyl mercaptan [4]: 37%; methyl mercaptan suppression (%) A alone [2]: 71%; Malodor reduction (%) furfuryl mercaptan [5]: 51%; Malodor reduction (%) propyl mercaptan [6]: 27% |
| CC/C=C\CCOC(=O)CCC [HEXENYL BUTY, CIS-3,] | 22 | – | – |

| Compound | methyl mercaptan suppression (%) [1] [%] | methyl mercaptan suppression (%) [3] [%] | further results |
| --- | --- | --- | --- |
| CC(C)=CCCC(C)=CC=O [CITRAL SYN REFINED (FDO), CITRAL] | 25 | – | methyl mercaptan suppression (%) A alone [2]: 1% and 0% |
| CC(=O)/C=C/C1C(C)=CCCC1(C)C (stereo not drawn) [IONONE-ALPHA, ionone alpha] | 14 | 50 | Malodor reduction (%) allyl mercaptan [4]: 43%; Malodor reduction (%) furfuryl mercaptan [5]: 46%; Malodor reduction (%) propyl mercaptan [6]: <20% |
| CC/C=C\CCOC(C)=O [HEXENYL CIS 3 ACETATE, cis-3-hexenyl acetate] | 60 | 38 | Malodor reduction (%) allyl mercaptan [4]: <20%; methyl mercaptan suppression (%) B alone ([2]; Group B level 100 ppm): 22% and 27%; Malodor reduction (%) furfuryl mercaptan [5]: 28%; Malodor reduction (%) propyl mercaptan [6]: <20% |
| CCOC(=O)C=Cc1ccccc1 [ETH CINNNAMTE, ethyl cinnamate] | 50 | – | methyl mercaptan suppression (%) A alone [2]: 12% and 8% |
| CC(O)CO (stereo not drawn) [PROPYLENE GLYCOL (SOLVENT), propylene glycol] | – | – | methyl mercaptan suppression (%) B alone ([2]; Group B level 400 ppm): −5% |
| COC(=O)C=Cc1ccccc1 [METH CINNAMATE, methyl cinnamate] | 36 | – | – |
| CC(=O)c1ccccc1 [ACETOPHENONE, acetophenone] | – | – | methyl mercaptan suppression (%) A alone [2]: 4% |
| CC(=O)/C=C/C=C(C)C [METHYL HEPTADIENONE, methyl heptadienone] | – | – | methyl mercaptan suppression (%) A alone [2]: 12% and 6% and 8% and 15% |
| CC1=CC(=O)CC(C)(C)C1 [ISOPHORONE] | 31 | – | – |
| COC(=O)c1ccccc1O [METHYL SALICYLATE EXT PURE, METHYL SALICYLATE] | – | <20 | – |
| CCCCC/C=C/C=O [OCTENAL TRANS-2] | 82 | – | – |
| CC/C=C\CC/C=C/C=O [NONADIEN-1-AL, TRANS-2, CIS-6,] | 74 | – | – |
| C=CCc1ccc(O)c(OC)c1 [EUGENOL, eugenol] | 46 | 78 | Malodor reduction (%) allyl mercaptan [4]: 63%; methyl mercaptan suppression (%) B alone ([2]; Group B level 400 ppm): 12% and 14% and 15% and 16%; Malodor reduction (%) furfuryl mercaptan [5]: 80%; Malodor reduction (%) propyl mercaptan [6]: 44% |
| CCCC/C=C/C=O [HEPTENAL-TRANS-2] | 82 | – | – |
| CC(C)c1ccc(C=O)cc1 [CUMIN ALD, cumin aldehyde] | – | – | methyl mercaptan suppression (%) A alone [2]: −42% |
| CCCCCCCC1CCCC(=O)O1 (stereo not drawn) [DODECALACTONE DELTA, dodecalactone delta] | – | <20 | – |
| CC1CCC(C(C)C)C(O)C1 (stereo not drawn) [MENTHOL NATURAL, menthol] | – | <20 | – |
| CC/C=C\CCOC(=O)CC(C)C [HEXENYL ISO VAL, CIS-3,] | 24 | – | – |
| CCCCCC1CCCC(=O)O1 (stereo not drawn) [DECALACTONE DELTA] | – | <20 | – |

| Compound | methyl mercaptan suppression (%) [1] [%] | methyl mercaptan suppression (%) [3] [%] | further results |
| --- | --- | --- | --- |
| CC/C=C/C=C/C=O [HEPTADIENAL, TRANS-2-TRANS-4] | 44 | – | – |
| Cc1ccc(C(C)C)c(O)c1 [THYMOL, thymol] | – | – | methyl mercaptan suppression (%) B alone ([2]; Group B level 400 ppm): 0% |
| CC/C=C\CC1=C(C)CCC1=O [JASMONE, CIS] | 32 | – | – |
| CC(C)OC(=O)C=Cc1ccccc1 [ISOPROPYL CINNAMATE] | 21 | – | – |
| CC/C=C\CCOC(=O)CC [HEXENYL PROP, CIS-3,] | 32 | – | – |
| CCCCCCC/C=C/C=O [DECENAL, TRANS-2,] | 90 | – | – |
| ISO JASMONE | 31 | – | – |
| CC(=O)OC1CC(C)CCC1C(C)C (stereo not drawn) [MENTHYL ACETATE] | – | <20 | – |
| CCCCCC=CCC(=O)OC [METHYL-3 -NONENOATE, METHYL-3-NONENOATE] | 36 | – | methyl mercaptan suppression (%) A alone [2]: 7% |
| CC=Cc1ccc(OC)cc1 [ANETHOL NF, anethol] | – | <20 | – |
| O=C1CCCCCCCCCCCCCCO1 [CYCLOPENTADECANOLIDE, cyclopentadecanolide] | – | <20 | – |
| CC(C)=CCCC(C)C=O (stereo not drawn) [MELONAL] | – | <20 | – |
| O=C/C=C/c1ccccc1 [CINN ALD, cinnamic aldehyde] | 33 | 26 | Malodor reduction (%) allyl mercaptan [4]: <20%; Malodor reduction (%) furfuryl mercaptan [5]: 27%; Malodor reduction (%) propyl mercaptan [6]: 26% |
| CCCCCC/C=C/C=O [NONENAL, TRANS-2,] | 86 | – | – |
| C=C(C)C1CC=C(C=O)CC1 (stereo not drawn) [PERILLA ALD] | 12 | – | methyl mercaptan suppression (%) A alone [2]: 16% |
| CCC/C=C/C=O [HEXENAL, TRANS-2,, trans-2-hexenal] | 82 | – | methyl mercaptan suppression (%) A alone ([2]; TRANS-2): 33% |
| CCCC(=O)OCC [ETHYL BUTYRATE, ethyl butyrate] | – | <20 | – |
| CCCCCCCC(C)=O [METHYL HEPTYL KETONE] | – | <20 | – |
| CC/C=C\CCCCCO [NONENOL, CIS 6] | 22 | – | – |
